The record followed here is patent US20200360520A1, “USE OF RIFAMYCIN-QUINOLIZIDONE COUPLING MOLECULE” (priority 2019, published 2020).

≈ marks a conversion by molar mass, not a printed value. Read-outs that look alike come from different tables or passages of the source.

Holding throughout (type): cell-based
The subject of assay [1] is Mycobacterium avium. The assay is described as follows: MIC by micro broth dilution method (resazurin microtiter assay). The settings on record: read-out: Minimum Inhibitory Concentration (MIC).
The test system of assay [2] is Mycobacterium kansasii. Described as above. The settings on record: Mycobacterium kansasii, read-out: Minimum Inhibitory Concentration (MIC).
In assay [3] the test system is Mycobacterium intracellulare. The description is as above. The note with it: Mycobacterium intracellulare, MH Culture Medium, read-out: Minimum Inhibitory Concentration (MIC).
Assay [4] has as its system Mycobacterium massiliense. The description is as above. The settings on record: Mycobacteroides abscessus, MH Culture Medium, read-out: Minimum Inhibitory Concentration (MIC).
In another assay the test system is Mycobacterium fortuitum. Described as above. The settings on record: Mycolicibacterium fortuitum, MH Culture Medium, read-out: Minimum Inhibitory Concentration (MIC).
For another assay, the system named is Mycodacterium chelonei. The description is as above. The settings on record: MH Culture Medium; Chelonei (standard strain); read-out: Minimum Inhibitory Concentration (MIC).
The test system of assay [5] is Mycobacterium abscessus. The assay is described as above. The note with it: Mycobacteroides abscessus, read-out: Minimum Inhibitory Concentration (MIC).
The subject of assay [6] is Mycobacterium avium. The assay is described as follows: MBC test (plating on agar, CFU count). The note with it: Mycobacterium avium, read-out: Minimum Bactericidal Concentration (MBC).
Assay [7] concerns Mycobacterium abscessus. The assay is described as follows: MBC test (plating on agar, CFU count). The settings on record: for Minimum Bactericidal Concentration (MBC): MH Culture Medium; for MBC: Mycobacteroides abscessus, 7H9 Culture Medium, read-out: Minimum Bactericidal Concentration (MBC).
Assay [8] deals with Mycobacterium kansasii. The assay is described as follows: MBC test (plating on agar, CFU count). The note with it: Mycobacterium kansasii, Mycobacterium kansasii, read-out: Minimum Bactericidal Concentration (MBC).
The mark [9] stands for this setting: MH Culture Medium, Avium (standard strain).
Where [10] appears, read: MH Culture Medium, clinically isolated strain Avium (S31).
[11] abbreviates: MH Culture Medium, clinically isolated strain Avium (S123).
Setting [12] is: MH Culture Medium, clinically isolated strain Avium (S559).
Setting [13] is: MH Culture Medium, clinically isolated strain Avium (S568).
[14] abbreviates: MH Culture Medium, clinically isolated strain Avium (S577).
Setting [15] is: MH Culture Medium, clinically isolated strain Avium (S597).
The mark [16] stands for this setting: MH Culture Medium, clinically isolated strain Avium (S602).
The mark [17] stands for this setting: MH Culture Medium, Kansasii (standard strain).
The mark [18] stands for this setting: MH Culture Medium, clinically isolated strain Kansasii (S9).
The mark [19] stands for this setting: MH Culture Medium, clinically isolated strain Kansasii (S199).
Where [20] appears, read: MH Culture Medium, clinically isolated strain Kansasii (S520).
The mark [21] stands for this setting: MH Culture Medium, clinically isolated strain Kansasii (S609).
Setting [22] is: Intracellulare (standard strain).
The mark [23] stands for this setting: clinically isolated strain Intracellulare (S90).
The mark [24] stands for this setting: clinically isolated strain Intracellulare (S261).
[25] abbreviates: clinically isolated strain Intracellulare (S269).
Where [26] appears, read: clinically isolated strain Intracellulare (S290).
The mark [27] stands for this setting: clinically isolated strain Intracellulare (S291).
The mark [28] stands for this setting: clinically isolated strain Intracellulare (S298).
The mark [29] stands for this setting: clinically isolated strain Intracellulare (S541).
Where [30] appears, read: clinically isolated strain Intracellulare (S623).
Where [31] appears, read: clinically isolated strain Intracellulare (ZPS).
The mark [32] stands for this setting: clinically isolated strain intracellulare (S442).
Setting [33] is: clinically isolated strain Massiliense (D10).
The mark [34] stands for this setting: clinically isolated strain Massiliense (D14).
Setting [35] is: clinically isolated strain Massiliense (D18).
Where [36] appears, read: clinically isolated strain Fortuitum (S103).
Setting [37] is: clinically isolated strain Fortuitum (S111).
Where [38] appears, read: 7H9 Broth, Mycobacterium avium Smooth.
[39] abbreviates: MH Broth, Mycobacterium avium Smooth.
Setting [40] is: 7H9 Culture Medium, Mycobacterium avium Smooth.
Setting [41] is: MH Culture Medium, Mycobacterium avium Smooth.

For `CO[C@H]1/C=C/O[C@@]2(C)Oc3c(C)c(O)c4c(c3C2=O)C2=NC3(CCN(CC(C)C)CC3)NC2=C(NC(=O)/C(C)=C\C=C\[C@H](C)[C@H](O)[C@@H](C)[C@@H](O)[C@@H](C)[C@H](OC(C)=O)[C@@H]1C)C4=O` [Rifabutin, rifabutin], the MIC in the assay on Mycobacterium avium [1] (setting [9]), in the assay with Mycobacterium avium [1] (setting [10]), with Mycobacterium avium [1] (setting [11]), with Mycobacterium avium [1] (setting [12]), with Mycobacterium avium [1] (setting [13]) and in the assay on Mycobacterium avium [1] (setting [14]) was 0.0625 µg/mL (≈ 0.0738 µM) throughout. The MIC in the assay on Mycobacterium avium [1] (setting [15]), in the assay with Mycobacterium avium [1] (setting [16]), in the assay on Mycobacterium kansasii [2] (setting [17]), in the assay on Mycobacterium kansasii [2] (setting [18]), in the assay with Mycobacterium kansasii [2] (setting [19]) and in the assay on Mycobacterium kansasii [2] (setting [20]) was 0.0625 µg/mL (≈ 0.0738 µM) each time. Besides, the MIC with Mycobacterium kansasii [2] (setting [21]) was determined as 0.0625 µg/mL (≈ 0.0738 µM); in assay [3] (setting [22]) it was 0.0625 µg/mL (≈ 0.0738 µM); in assay [3] (setting [23]), 0.125 µg/mL (≈ 0.148 µM); in [3] (setting [24]), 0.25 µg/mL (≈ 0.295 µM); in assay [3] (setting [25]), 0.0625 µg/mL (≈ 0.0738 µM); in assay [3] (setting [26]), 0.0625 µg/mL (≈ 0.0738 µM). For the same compound, the MIC worked out at 0.0625 µg/mL (≈ 0.0738 µM) in assay [3] (setting [27]); 0.5 µg/mL (≈ 0.59 µM) in [3] (setting [28]); 0.125 µg/mL (≈ 0.148 µM) in assay [3] (setting [29]); 0.25 µg/mL (≈ 0.295 µM) in assay [3] (setting [30]); 0.0625 µg/mL (≈ 0.0738 µM) in assay [3] (setting [31]); 0.0625 µg/mL (≈ 0.0738 µM) in assay [3] (setting [32]). The MIC in [4] (setting [33]) was greater than 64 µg/mL; in assay [4] (setting [34]), 64 µg/mL (≈ 75.6 µM); in assay [4] (setting [35]), 64 µg/mL (≈ 75.6 µM); in the assay on Mycobacterium fortuitum (Fortuitum (standard strain)), 4 µg/mL (≈ 4.72 µM); in the assay on Mycobacterium fortuitum (setting [36]), 32 µg/mL (≈ 37.8 µM); with Mycobacterium fortuitum (setting [37]), 4 µg/mL (≈ 4.72 µM). Further, the MIC in the assay with Mycodacterium chelonei was determined as 64 µg/mL (≈ 75.6 µM).

`COc1c(N2C[C@@H]3CCCN[C@@H]3C2)c(F)cc2c(=O)c(C(=O)O)cn(C3CC3)c12` [Moxifloxacin, moxifloxacin]: the MIC in the assay with Mycobacterium avium [1] (setting [9]) came to 1 µg/mL (≈ 2.49 µM); with Mycobacterium avium [1] (setting [10]), 8 µg/mL (≈ 19.9 µM); in the assay on Mycobacterium avium [1] (setting [11]) it was 0.5 µg/mL (≈ 1.25 µM); in the assay with Mycobacterium avium [1] (setting [12]), 1 µg/mL (≈ 2.49 µM); in the assay on Mycobacterium avium [1] (setting [13]), 0.5 µg/mL (≈ 1.25 µM); in the assay on Mycobacterium avium [1] (setting [14]) it was 0.5 µg/mL (≈ 1.25 µM). In addition, the MIC came to 2 µg/mL (≈ 4.98 µM) in the assay with Mycobacterium avium [1] (setting [15]); 4 µg/mL (≈ 9.96 µM) in the assay on Mycobacterium avium [1] (setting [16]); 0.0625 µg/mL (≈ 0.156 µM) in the assay with Mycobacterium kansasii [2] (setting [17]); 0.0625 µg/mL (≈ 0.156 µM) in the assay with Mycobacterium kansasii [2] (setting [18]); 0.0625 µg/mL (≈ 0.156 µM) in the assay on Mycobacterium kansasii [2] (setting [19]); 0.0625 µg/mL (≈ 0.156 µM) with Mycobacterium kansasii [2] (setting [20]). Moreover, the MIC worked out at 0.0625 µg/mL (≈ 0.156 µM) in the assay on Mycobacterium kansasii [2] (setting [21]); 0.25 µg/mL (≈ 0.623 µM) in assay [3] (setting [22]); 2 µg/mL (≈ 4.98 µM) in [3] (setting [23]); 2 µg/mL (≈ 4.98 µM) in [3] (setting [24]); 2 µg/mL (≈ 4.98 µM) in assay [3] (setting [25]); 2 µg/mL (≈ 4.98 µM) in assay [3] (setting [26]). The MIC in assay [3] (setting [27]) was found to be 1 µg/mL (≈ 2.49 µM); in [3] (setting [28]), 2 µg/mL (≈ 4.98 µM); in assay [3] (setting [29]), 64 µg/mL (≈ 159 µM); in [3] (setting [30]), 2 µg/mL (≈ 4.98 µM); in assay [3] (setting [31]) it was 1 µg/mL (≈ 2.49 µM); in assay [3] (setting [32]) it was 2 µg/mL (≈ 4.98 µM). Further, the MIC in assay [4] (setting [33]) worked out at 32 µg/mL (≈ 79.7 µM); in [4] (setting [34]), 32 µg/mL (≈ 79.7 µM); in [4] (setting [35]), 8 µg/mL (≈ 19.9 µM); in the assay with Mycobacterium fortuitum (Fortuitum (standard strain)), 1 µg/mL (≈ 2.49 µM); in the assay on Mycobacterium fortuitum (setting [36]) it was 1 µg/mL (≈ 2.49 µM); in the assay on Mycobacterium fortuitum (setting [37]), 0.5 µg/mL (≈ 1.25 µM). Also, the MIC in the assay with Mycodacterium chelonei was 4 µg/mL (≈ 9.96 µM).

On to `O=C(O)c1cn(C2CC2)c2cc(N3CCNCC3)c(F)cc2c1=O` [Ciprofloxacin, ciprofloxacin], for which the MIC was greater than 64 µg/mL with Mycobacterium avium [1] (setting [38]); greater than 64 µg/mL in the assay on Mycobacterium avium [1] (setting [39]); 16 µg/mL (≈ 48.3 µM) in the assay on Mycobacterium abscessus [5] (7H9 Broth); greater than 64 µg/mL in the assay with Mycobacterium abscessus [5] (MH Broth); greater than 64 µg/mL in the assay with Mycobacterium kansasii [2] (7H9 Broth); greater than 64 µg/mL with Mycobacterium kansasii [2] (MH Broth). Moreover, the MBC in the assay on Mycobacterium avium [6] (setting [40]), in the assay on Mycobacterium avium [6] (setting [41]), with Mycobacterium abscessus [7], in the assay with Mycobacterium kansasii [8] (7H9 Culture Medium) and in the assay with Mycobacterium kansasii [8] (MH Culture Medium) was greater than 64 µg/mL throughout. Also, the “Minimum Bactericidal Concentration (MBC)” value in the assay on Mycobacterium abscessus [7] was greater than 64 µg/mL.

On to `NCC[C@H](O)C(=O)N[C@@H]1C[C@H](N)[C@@H](O[C@H]2O[C@H](CN)[C@@H](O)[C@H](O)[C@H]2O)[C@H](O)[C@H]1O[C@H]1O[C@H](CO)[C@@H](O)[C@H](N)[C@H]1O` [Amikacin, amikacin], for which the MIC was greater than 64 µg/mL in the assay with Mycobacterium avium [1] (7H9 Broth, Mycobacterium avium Rough); 2 µg/mL (≈ 3.42 µM) in the assay on Mycobacterium avium [1] (setting [38]); 2 µg/mL (≈ 3.42 µM) in the assay on Mycobacterium avium [1] (MH Broth, Mycobacterium avium Rough); 2 µg/mL (≈ 3.42 µM) with Mycobacterium avium [1] (setting [39]); 32 µg/mL (≈ 54.6 µM) in the assay on Mycobacterium abscessus [5] (7H9 Broth); 16 µg/mL (≈ 27.3 µM) in the assay with Mycobacterium abscessus [5] (MH Broth). Further, the MIC in the assay on Mycobacterium kansasii [2] (7H9 Broth) was determined as 16 µg/mL (≈ 27.3 µM); in the assay on Mycobacterium kansasii [2] (MH Broth), 1 µg/mL (≈ 1.71 µM). Besides, the MBC in the assay on Mycobacterium avium [6] (7H9 Culture Medium, Mycobacterium avium Rough) is greater than 64 µg/mL; in the assay on Mycobacterium avium [6] (setting [40]), greater than 64 µg/mL; in the assay with Mycobacterium avium [6] (MH Culture Medium, Mycobacterium avium Rough) it was greater than 64 µg/mL; in the assay on Mycobacterium avium [6] (setting [41]) it was greater than 64 µg/mL; in the assay with Mycobacterium abscessus [7] it was greater than 64 µg/mL; with Mycobacterium kansasii [8] (7H9 Culture Medium), 64 µg/mL (≈ 109 µM). Further, in the assay with Mycobacterium kansasii [8] (MH Culture Medium), the MBC is greater than 64 µg/mL. Also, the “Minimum Bactericidal Concentration (MBC)” value in the assay with Mycobacterium abscessus [7] is greater than 64 µg/mL.
